Results from paper PMC2932438 (Journal of pharmaceutical and biomedical analysis, 2010).

Key:
[1] = target: T1, immobilized ERRα ligand binding domain (Homo sapiens, UniProt P11474); assay: Retention on the ERRα column; conditions: data not shown
T1 sequence (P11474 193-421 limits assumed): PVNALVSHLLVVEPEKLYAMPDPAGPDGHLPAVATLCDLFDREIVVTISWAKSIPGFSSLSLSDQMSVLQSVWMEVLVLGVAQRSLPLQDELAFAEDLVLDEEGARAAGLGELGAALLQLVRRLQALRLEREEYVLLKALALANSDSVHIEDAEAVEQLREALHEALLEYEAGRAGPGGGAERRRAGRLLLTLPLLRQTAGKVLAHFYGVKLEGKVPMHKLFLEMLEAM

ERRγ = conditions: cited from earlier work
ERRα = conditions: cited from earlier work
T98G glioma cell line = assay: MTS proliferation assay; type: cell-based; conditions: Homo sapiens, 48 h, read-out: IC50 values T98G cell line
[2] = target: T2, immobilized ERRγ ligand binding domain (Homo sapiens, UniProt P62508); assay: Non-linear chromatography
T2 sequence (P62508 233-457 limits assumed): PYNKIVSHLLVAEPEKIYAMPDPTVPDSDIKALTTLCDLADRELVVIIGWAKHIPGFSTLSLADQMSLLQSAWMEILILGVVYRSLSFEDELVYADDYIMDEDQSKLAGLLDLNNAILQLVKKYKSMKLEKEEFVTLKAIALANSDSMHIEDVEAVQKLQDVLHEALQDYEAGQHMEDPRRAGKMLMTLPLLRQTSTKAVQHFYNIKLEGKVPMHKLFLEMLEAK

Structure (SMILES)	specific retention on the ERRα column [1]	Ki (ERRγ) [µM]	affinity for the ERRα (ERRα)	IC50 (T98G glioma cell line) [µM]	Kd [2] [µM]
CC/C(=C(\c1ccc(O)cc1)c1ccc(OCCN(C)C)cc1)c1ccccc1 [4-hydroxy tamoxifen]	not specifically retained	0.075	no affinity	14.5	
CC/C(=C(\c1ccc(O)cc1)c1ccc(OCCNC)cc1)c1ccccc1 [Endoxifen]	not specifically retained		no affinity	3.4	0.0432
CC/C(=C(\c1ccccc1)c1ccc(OCCN(C)C)cc1)c1ccccc1 [Tamoxifen]			no affinity		
